From patent publication US20220356174A1, “PYRIDIN-2-ONE COMPOUNDS USEFUL AS SMARCA2 ANTAGONISTS” (Epizyme, Inc., priority 2018, published 2022) come the findings set out here.

Sequence of FL-SMARCA4 (P51532 whole entry): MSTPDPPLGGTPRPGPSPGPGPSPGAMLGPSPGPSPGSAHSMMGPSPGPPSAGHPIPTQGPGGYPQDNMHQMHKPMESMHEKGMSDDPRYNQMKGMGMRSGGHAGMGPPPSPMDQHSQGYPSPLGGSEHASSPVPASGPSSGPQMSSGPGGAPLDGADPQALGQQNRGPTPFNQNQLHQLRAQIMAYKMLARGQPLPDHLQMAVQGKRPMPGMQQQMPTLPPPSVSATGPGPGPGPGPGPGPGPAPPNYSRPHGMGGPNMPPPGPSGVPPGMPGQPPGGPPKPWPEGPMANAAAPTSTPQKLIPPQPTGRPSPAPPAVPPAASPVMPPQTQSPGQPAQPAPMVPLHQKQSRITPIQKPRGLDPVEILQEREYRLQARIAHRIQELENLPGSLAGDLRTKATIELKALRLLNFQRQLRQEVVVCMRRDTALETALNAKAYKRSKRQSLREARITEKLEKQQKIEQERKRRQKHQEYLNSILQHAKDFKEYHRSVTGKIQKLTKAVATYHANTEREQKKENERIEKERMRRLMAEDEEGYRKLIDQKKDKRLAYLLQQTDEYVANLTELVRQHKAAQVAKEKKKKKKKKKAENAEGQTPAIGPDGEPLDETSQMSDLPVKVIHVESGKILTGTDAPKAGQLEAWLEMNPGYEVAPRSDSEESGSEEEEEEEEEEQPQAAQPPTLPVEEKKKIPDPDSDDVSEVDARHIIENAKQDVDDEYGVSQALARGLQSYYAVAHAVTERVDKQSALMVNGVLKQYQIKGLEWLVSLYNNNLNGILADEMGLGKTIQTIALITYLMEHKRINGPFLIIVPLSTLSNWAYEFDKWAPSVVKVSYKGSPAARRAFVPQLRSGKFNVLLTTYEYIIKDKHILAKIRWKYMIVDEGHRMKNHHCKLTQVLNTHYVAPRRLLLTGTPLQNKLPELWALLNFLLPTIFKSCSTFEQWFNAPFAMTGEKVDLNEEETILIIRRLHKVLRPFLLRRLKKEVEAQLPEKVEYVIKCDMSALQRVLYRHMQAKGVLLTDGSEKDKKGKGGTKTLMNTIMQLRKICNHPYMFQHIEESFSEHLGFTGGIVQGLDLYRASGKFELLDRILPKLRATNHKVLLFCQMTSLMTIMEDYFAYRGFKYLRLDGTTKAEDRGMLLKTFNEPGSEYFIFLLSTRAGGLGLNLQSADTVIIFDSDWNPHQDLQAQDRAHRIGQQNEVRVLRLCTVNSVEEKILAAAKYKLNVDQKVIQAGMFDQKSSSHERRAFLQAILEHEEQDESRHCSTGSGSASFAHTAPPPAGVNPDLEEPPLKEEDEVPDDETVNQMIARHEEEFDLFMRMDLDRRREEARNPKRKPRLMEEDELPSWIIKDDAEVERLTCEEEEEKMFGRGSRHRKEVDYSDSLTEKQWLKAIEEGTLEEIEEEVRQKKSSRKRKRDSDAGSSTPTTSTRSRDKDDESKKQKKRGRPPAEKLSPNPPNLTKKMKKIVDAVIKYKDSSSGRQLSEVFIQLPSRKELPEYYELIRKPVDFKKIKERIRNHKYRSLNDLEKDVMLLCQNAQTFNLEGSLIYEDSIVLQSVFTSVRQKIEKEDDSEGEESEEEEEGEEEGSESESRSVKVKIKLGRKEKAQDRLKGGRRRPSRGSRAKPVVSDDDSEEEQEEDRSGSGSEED

The target of one assay is T1, FL-SMARCA2 (full-length human SMARCA2 isoform 1) (Homo sapiens, UniProt P51531).
T1 construct: FLAG tag (YKDDDDK) (C); made in house; host or cells: Sf21 insect cells (baculovirus, pFastBacI)
T1 sequence (P51531 with tags, fused parts or gaps): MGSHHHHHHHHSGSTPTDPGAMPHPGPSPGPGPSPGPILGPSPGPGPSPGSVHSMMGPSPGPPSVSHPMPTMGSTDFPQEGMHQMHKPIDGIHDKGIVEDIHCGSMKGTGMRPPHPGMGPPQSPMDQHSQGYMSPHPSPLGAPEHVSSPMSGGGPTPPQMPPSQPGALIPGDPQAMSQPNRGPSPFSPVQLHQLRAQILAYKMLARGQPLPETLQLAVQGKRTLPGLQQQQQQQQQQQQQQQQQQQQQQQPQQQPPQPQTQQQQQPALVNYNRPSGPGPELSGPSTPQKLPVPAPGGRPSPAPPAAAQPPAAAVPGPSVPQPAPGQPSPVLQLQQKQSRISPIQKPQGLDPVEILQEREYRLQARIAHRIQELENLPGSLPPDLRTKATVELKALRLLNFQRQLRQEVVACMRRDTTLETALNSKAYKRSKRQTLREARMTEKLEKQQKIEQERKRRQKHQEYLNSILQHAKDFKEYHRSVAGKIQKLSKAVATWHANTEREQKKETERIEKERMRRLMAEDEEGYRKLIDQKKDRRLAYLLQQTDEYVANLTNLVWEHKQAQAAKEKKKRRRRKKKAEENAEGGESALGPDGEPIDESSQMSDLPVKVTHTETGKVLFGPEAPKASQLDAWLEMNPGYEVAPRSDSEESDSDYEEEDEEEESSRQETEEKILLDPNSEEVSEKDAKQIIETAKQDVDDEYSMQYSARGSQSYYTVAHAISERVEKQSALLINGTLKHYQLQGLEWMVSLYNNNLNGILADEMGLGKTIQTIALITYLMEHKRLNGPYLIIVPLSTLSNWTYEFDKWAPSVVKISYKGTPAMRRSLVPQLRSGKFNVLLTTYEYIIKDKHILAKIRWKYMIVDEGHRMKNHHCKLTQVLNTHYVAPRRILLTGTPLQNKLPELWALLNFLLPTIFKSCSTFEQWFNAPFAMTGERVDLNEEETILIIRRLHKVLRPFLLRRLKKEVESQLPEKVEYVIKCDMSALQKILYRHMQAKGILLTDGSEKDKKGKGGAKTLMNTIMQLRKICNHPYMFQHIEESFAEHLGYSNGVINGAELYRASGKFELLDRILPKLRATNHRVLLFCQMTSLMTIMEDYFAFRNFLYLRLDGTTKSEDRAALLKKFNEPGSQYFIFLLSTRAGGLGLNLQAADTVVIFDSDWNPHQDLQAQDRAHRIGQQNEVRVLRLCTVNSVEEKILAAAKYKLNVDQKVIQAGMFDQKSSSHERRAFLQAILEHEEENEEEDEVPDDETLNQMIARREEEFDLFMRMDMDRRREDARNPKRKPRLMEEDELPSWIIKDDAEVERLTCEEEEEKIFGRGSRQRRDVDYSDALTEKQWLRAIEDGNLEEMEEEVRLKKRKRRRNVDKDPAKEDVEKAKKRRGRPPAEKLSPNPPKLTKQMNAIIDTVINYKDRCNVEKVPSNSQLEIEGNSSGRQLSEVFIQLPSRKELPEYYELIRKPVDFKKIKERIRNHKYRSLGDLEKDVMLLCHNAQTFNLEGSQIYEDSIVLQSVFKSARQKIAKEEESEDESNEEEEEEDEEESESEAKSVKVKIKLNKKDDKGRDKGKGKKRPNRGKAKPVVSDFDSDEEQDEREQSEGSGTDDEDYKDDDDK
As to the kind of experiment: SMARCA2 ATPase activity assay (ADP-Glo, chicken mononucleosome substrate). Type of assay: biochemical. Particulars: Table 3c.1; ATPase assay, enzyme 5 nM, ATP 250 uM, chicken mononucleosome 10 nM, 30 min preincubation.
Compound `NC(=O)c1cccc(C#Cc2cc(C(=O)Nc3cc(F)c(=O)n(CC(F)F)c3)sc2Cl)c1` [Compound 57c] showed a half-maximal inhibitory concentration (IC50) of 20.9 nM.
Still for that read-out and setting: the figure for `O=C(Nc1cc(F)c(=O)n(CC(F)F)c1)c1cc(C#Cc2ccccc2)c(Cl)s1` [Compound 41c] is 82.7 nM; for `CS(=O)(=O)c1cccc(C#Cc2cc(C(=O)Nc3cc(F)c(=O)n(CC(F)F)c3)sc2Cl)c1` [Compound 98c] it is 108 nM.
The same measure, in the same setting: with `O=C(Nc1cc(F)c(=O)n(CC(F)F)c1)c1cc(C#Cc2cnn(CCO)c2)c(Cl)s1` [Compound 122c] the figure was 52 nM; with `Cc1ncc(C#Cc2cc(C(=O)Nc3cc(F)c(=O)n(CC(F)F)c3)sc2Cl)s1` [Compound 39c], 78 nM.
On the same count and under the same terms, the figure for `Cc1nnc(C#Cc2cc(C(=O)Nc3cc(F)c(=O)n(CC(F)F)c3)sc2Cl)[nH]1` [Compound 127c] is 352 nM; for `O=C(Nc1cc(F)c(=O)n(CC(F)F)c1)c1cc(F)c(C(F)(F)F)s1` [Compound 25c] it is 14.2 nM.

The assay is the same for the next values; noted with them: Table 3.1; ATPase assay, enzyme 5 nM, ATP 250 uM, chicken mononucleosome 10 nM, 30 min preincubation.
`Cn1c(C(=O)Nc2cc(F)c(=O)n(CCF)c2)cnc1C#N` [Compound 220] yielded an IC50 of 488 nM.
The compound `N#Cc1[nH]c(C(=O)Nc2ccc(=O)n(CCF)c2)cc1Cl` [Compound 231] came in with an IC50 of 142 nM.
Still for that read-out and setting: the figure for `O=C(Nc1cc(F)c(=O)n(CCF)c1)c1cc(Cl)c(F)s1` [Compound 251] is 131 nM; for `N#Cc1[nH]c(C(=O)Nc2cc(C#N)c(=O)n(CCF)c2)cc1Cl` [Compound 238] it is 232 nM.
The same measure, in the same setting: with `Cc1ncc(C(=O)Nc2cc(F)c(=O)n(CCF)c2)s1` [Compound 222] the figure was 1310 nM; with `O=C(Nc1cc(Cl)c(=O)n(CC(F)F)c1)c1cc(F)c(Cl)s1` [Compound 337], 33.7 nM.
The compound `CC(O)C#Cc1cc(C(=O)Nc2cc(F)c(=O)n(CC(F)F)c2)sc1Cl` (centres unmarked) [Compound 339] had an IC50 of 943 nM.

The subject of the next assay is A549 cells. The experiment in a line: High-throughput proliferation (HTP) assay for A549 cells (CellTiter-Glo, 7 days). To be noted: Homo sapiens, 168 h, read-out: A549 SMARCA2 IC50. The class given is cell-based. As for the experimental part:
Thawing vials: A549 cells (ATCC #CCL-185™) were thawed from a cryovial containing approximately 1.6×10^6 cells frozen in 70% F12K medium, 20% HI-FBS and 10% DMSO. Cells were thawed by submerging the bottom half of the vial in a 37° C. water bath and gently flicked until almost thawed. The cells were transferred into a 15 mL conical tube containing 9 mL of F12K medium+10% HI-FBS and then centrifuged at 200×g for 4 min before drawing off the media without disturbing the cell pellet in order to remove the DMSO. The cells were resuspended again in 15 mL of F12K fresh complete media+10% HI-FBS and grown up in a T75 flask at 37° C. with 5% CO2 Incubator. Viability was measured to obtain baseline.
Frozen stock vials preparation: The cell culture was transferred to a 50 mL conical tube, spun down to remove medium, and resuspended at 1-2×10^6 cells/mL in complete medium containing 10% DMSO. The culture was then stored for 24 hours at −80 degree C., (with the initial rate of freezing is −1 degree C. per minute in a freezing container), then transferred and stored in liquid nitrogen.
(§1) Routine subculture: Sub-confluent cultures (70-80%) were split every 4 days, seeding out at 1-2×10^6 cells/75 cm^2.
Day 0: Assay ready plates were prepared by dispensing 50 nL of compound or DMSO in the appropriate wells of 384-well white CulturPlates using Echo550. Using the Multiflo, A549 cells were plated at 50 μL/well in F12K complete media+10% HI-FBS+1% pen/strep at cell density determined [1,250 cells/mL (62.5 cells/well)] from growth curve.
Treated cells were incubated at 37° C., 5% CO2, relative humidity >90% for 7 days. CellTiter-Glo (CTG) ATP detection reagent was prepared according to manufacturer's specifications. Cell assay plates were removed from the incubator and brought to room temperature (RT). Using the MultiDrop liquid handler, 30 μL of CTG were added per well. Plates were placed on the multidrop dispenser shake for 5 seconds at room temperature (RT). Plates were incubated for 30 minutes in the dark at RT before measuring luminescence using the Envison2104.
Data analysis: Using the DMSO control wells as the 0% inhibition (high signal) control and the 10 μM Doxorubicin control wells as the 100% inhibition (low signal) control, percent inhibition EC50s (inflection point) and IC50 s were calculated for the compound dose responses.
As for `NC(=O)c1cccc(C#Cc2cc(C(=O)Nc3cc(F)c(=O)n(CC(F)F)c3)sc2Cl)c1` [Compound 57c], the IC50 came to 3610 nM.
Still for that read-out and setting: with `O=C(Nc1cc(F)c(=O)n(CC(F)F)c1)c1cc(C#Cc2ccccc2)c(Cl)s1` [Compound 41c] the figure was 4270 nM; with `CS(=O)(=O)c1cccc(C#Cc2cc(C(=O)Nc3cc(F)c(=O)n(CC(F)F)c3)sc2Cl)c1` [Compound 98c], 3300 nM.
Still for that read-out and setting: with `O=C(Nc1cc(F)c(=O)n(CC(F)F)c1)c1cc(C#Cc2cnn(CCO)c2)c(Cl)s1` [Compound 122c] the figure was 4600 nM.
On the same count and under the same terms, with `Cc1ncc(C#Cc2cc(C(=O)Nc3cc(F)c(=O)n(CC(F)F)c3)sc2Cl)s1` [Compound 39c] the figure was 1370 nM.
`Cc1nnc(C#Cc2cc(C(=O)Nc3cc(F)c(=O)n(CC(F)F)c3)sc2Cl)[nH]1` [Compound 127c]: the IC50 is greater than 10000 nM.
Regarding `Cn1c(C(=O)Nc2cc(F)c(=O)n(CCF)c2)cnc1C#N` [Compound 220], the IC50 is no less than 20000 nM.
Same read-out and setting: the figure for `N#Cc1[nH]c(C(=O)Nc2ccc(=O)n(CCF)c2)cc1Cl` [Compound 231] is no less than 20000 nM; for `O=C(Nc1cc(F)c(=O)n(CCF)c1)c1cc(Cl)c(F)s1` [Compound 251] it is 5460 nM.
In the case of `N#Cc1[nH]c(C(=O)Nc2cc(C#N)c(=O)n(CCF)c2)cc1Cl` [Compound 238], the IC50 was found to be 7270 nM.
Same read-out and setting: with `O=C(Nc1cc(F)c(=O)n(CC(F)F)c1)c1cc(F)c(C(F)(F)F)s1` [Compound 25c] the figure was 614 nM; with `Cc1ncc(C(=O)Nc2cc(F)c(=O)n(CCF)c2)s1` [Compound 222], no less than 20000 nM; with `O=C(Nc1cc(Cl)c(=O)n(CC(F)F)c1)c1cc(F)c(Cl)s1` [Compound 337], 769 nM.
Same read-out and setting: the figure for `CC(O)C#Cc1cc(C(=O)Nc2cc(F)c(=O)n(CC(F)F)c2)sc1Cl` (centres unmarked) [Compound 339] is greater than 10000 nM.

A further assay deals with H358 cells. As to the kind of experiment: High-throughput proliferation (HTP) assay for H358 cells (CellTiter-Glo, 7 days). The class given is cell-based. To be noted: Homo sapiens, NCI-H358, 168 h, read-out: H358 SMARCA2 IC50. As for the experimental part: Thawing vials: H358 cells (ATCC #CRL-5807™) were thawed from a cryovial containing approximately 1.6×10^6 cells frozen in 70% RPMI 1640 medium, 20% HI-FBS and 10% DMSO. Cells were thawed by submerging the bottom half of the vial in a 37° C. water bath and gently flicked until almost thawed. The cells were removed and transferred into a 15 mL conical tube containing 9 mL RPMI 1640 medium+10% HI-FBS and then centrifuged 200×g for 4 min before drawing off the media without disturbing the cell pellet to remove the DMSO. The cells were resuspended again in 15 mL of RPMI 1640 fresh complete media+10% HI-FBS and grown up in a T75 flask at 37° C. with 5% CO2 Incubator. Viability was measured to obtain baseline.
Preparing frozen stock vials: Cell density was counted in a stock flask. The culture was transferred to a 50 mL conical tube and spun down to remove medium, and then resuspend at 1-2×10^6 cells/mL in complete medium containing 10% DMSO and transferred to a 1 mL per vial.
as §1
Day 0: Assay ready plates were prepared by dispensing 50 nL of compound stock or DMSO in the appropriate wells of 384-well white CulturPlates using Echo550. Using the Multiflo, H358 cells at 50 μL/well were plated in RPMI 1640 complete media+10% HI-FBS+1% pen/strep at cell density determined [20,000 cells/mL (1,000 cells/well)] from growth curve. Treated cells were inclubated at 37° C., 5% CO2, relative humidity >90% for 7 days. CellTiter-Glo (CTG) ATP detection reagent was prepared according to manufacturer's specifications. Cell assay plates were removed from incubator and bring to room temperature (RT).
Using the MultiDrop liquid handler, 30 μL of CTG were added per well. Plates were placed on the multidrop dispenser shake for 5 seconds at RT. Plates were incubated for 30 minutes in the dark at RT before measuring luminescence using the Envison2104.
Data analysis: Using the DMSO control wells as the 0% inhibition (high signal) control and the 10 uM Doxorubicin control wells as the 100% inhibition (low signal) control, percent inhibition EC50s (inflection point) and IC50s were calculated for the compound dose responses.
`NC(=O)c1cccc(C#Cc2cc(C(=O)Nc3cc(F)c(=O)n(CC(F)F)c3)sc2Cl)c1` [Compound 57c]: the IC50 is greater than 10000 nM.
Same read-out and setting: with `O=C(Nc1cc(F)c(=O)n(CC(F)F)c1)c1cc(C#Cc2ccccc2)c(Cl)s1` [Compound 41c] the figure was greater than 10000 nM.
Same read-out and setting: the figure for `CS(=O)(=O)c1cccc(C#Cc2cc(C(=O)Nc3cc(F)c(=O)n(CC(F)F)c3)sc2Cl)c1` [Compound 98c] is greater than 10000 nM.
For `O=C(Nc1cc(F)c(=O)n(CC(F)F)c1)c1cc(C#Cc2cnn(CCO)c2)c(Cl)s1` [Compound 122c], the IC50 is greater than 10000 nM.
On the same count and under the same terms, with `Cc1ncc(C#Cc2cc(C(=O)Nc3cc(F)c(=O)n(CC(F)F)c3)sc2Cl)s1` [Compound 39c] the figure was greater than 10000 nM.
As to `Cc1nnc(C#Cc2cc(C(=O)Nc3cc(F)c(=O)n(CC(F)F)c3)sc2Cl)[nH]1` [Compound 127c], the IC50 is greater than 10000 nM.
The same measure, in the same setting: with `O=C(Nc1cc(F)c(=O)n(CC(F)F)c1)c1cc(F)c(C(F)(F)F)s1` [Compound 25c] the figure was greater than 10000 nM.

The next assay concerns the target FL-SMARCA4 (Homo sapiens, UniProt P51532). As to the kind of experiment: SMARCA4 ATPase activity assay (ADP-Glo, chicken mononucleosome substrate). Particulars: FL-SMARCA4 IC50, Table 3.2; ATPase assay, enzyme 5 nM, ATP 250 uM, chicken mononucleosome 10 nM, 30 min preincubation.
The compound `Cn1c(C(=O)Nc2cc(F)c(=O)n(CCF)c2)cnc1C#N` [Compound 220] gave an IC50 of 1930 nM.
Same read-out and setting: with `N#Cc1[nH]c(C(=O)Nc2ccc(=O)n(CCF)c2)cc1Cl` [Compound 231] the figure was 544 nM.
As for `O=C(Nc1cc(F)c(=O)n(CCF)c1)c1cc(Cl)c(F)s1` [Compound 251], the IC50 amounted to 623 nM.
Take `N#Cc1[nH]c(C(=O)Nc2cc(C#N)c(=O)n(CCF)c2)cc1Cl` [Compound 238]: the IC50 worked out at 879 nM.
On the same count and under the same terms, with `Cc1ncc(C(=O)Nc2cc(F)c(=O)n(CCF)c2)s1` [Compound 222] the figure was 10200 nM.
In turn, `O=C(Nc1cc(Cl)c(=O)n(CC(F)F)c1)c1cc(F)c(Cl)s1` [Compound 337] yielded a concentration for half-maximal inhibition (IC50) of 104 nM.
For `CC(O)C#Cc1cc(C(=O)Nc2cc(F)c(=O)n(CC(F)F)c2)sc1Cl` (centres unmarked) [Compound 339], 2320 nM corresponded to half-maximal inhibition (IC50).

The assay is the same for the next values; noted with them: FL-SMARCA4 IC>50, Table 3c.2; ATPase assay, enzyme 5 nM, ATP 250 uM, chicken mononucleosome 10 nM, 30 min preincubation.
As for `NC(=O)c1cccc(C#Cc2cc(C(=O)Nc3cc(F)c(=O)n(CC(F)F)c3)sc2Cl)c1` [Compound 57c], the midpoint of inhibition, the IC50, lay at 99.9 nM.
Same read-out and setting: with `O=C(Nc1cc(F)c(=O)n(CC(F)F)c1)c1cc(C#Cc2ccccc2)c(Cl)s1` [Compound 41c] the figure was 250 nM; with `CS(=O)(=O)c1cccc(C#Cc2cc(C(=O)Nc3cc(F)c(=O)n(CC(F)F)c3)sc2Cl)c1` [Compound 98c], 287 nM; with `O=C(Nc1cc(F)c(=O)n(CC(F)F)c1)c1cc(C#Cc2cnn(CCO)c2)c(Cl)s1` [Compound 122c], 130 nM.
In turn, `Cc1ncc(C#Cc2cc(C(=O)Nc3cc(F)c(=O)n(CC(F)F)c3)sc2Cl)s1` [Compound 39c] showed an IC50 of 143 nM.
